Literature values as cited in PubChem BioAssay AID1259409 (Chemical Carcinogenesis Research Information System (CCRIS), 2018).

Test system: rodent chemically induced tumor inhibition, incidence and multiplicity
Test: CCRIS tumor inhibitor studies
Details: Route [Inhibitor]: ORAL

## Cc1c(-c2cnccn2)ssc1=S
Carcinogen: DIETHYLNITROSAMINE, 55-18-5, Dose [Inhibitor]: 0, 600 MG/KG DIET FOR DURATION OF STUDY BEGINNING 1 WK PRIOR TO CARCINOGEN TREATMENT (STUDY DURATION: 25 WK), Species: HAMSTER, Strain/Sex: SYRIAN/MALE, Target Tissue: Type of Lesion: TRACHEA: PAPILLOMA, Dose [Carcinogen]: 17.8 MG/KG BW 2/WK FOR 20 WK, Promoter: NONE USED
  tumour outcome (control, treated, inhibition, significance): 100%, 95%, 5%, not significant
Carcinogen: N-BUTYL-N(4-HYDROXYBUTYL)NITROSAMINE, 3817-11-6, Dose [Inhibitor]: 0, 250 MG/KG DIET FOR 6 MO BEGINNING 1 WK PRIOR TO CARCINOGEN TREATMENT (STUDY DURATION: 6 MO), Species: MOUSE, Strain/Sex: BDF/MALE, Target Tissue: Type of Lesion: URINARY BLADDER: CARCINOMA, Dose [Carcinogen]: 7.5 MG IN 0.1 ML ETHANOL:WATER (20:80) 1/WK FOR 8 WK, Promoter: NONE USED
  tumour outcome (control, treated, inhibition, significance): 35/78 (45%), 23/76 (30%), 33%, p<0.05
Carcinogen: N-BUTYL-N-(4-HYDROXYBUTYL)NITROSAMINE, 3817-11-6, Dose [Inhibitor]: 0, 100 MG/KG DIET FOR 6 MO BEGINNING 1 WK PRIOR TO CARCINOGEN TREATMENT (STUDY DURATION: 6 MO), Species: MOUSE, Strain/Sex: BDF/MALE, Target Tissue: Type of Lesion: URINARY BLADDER: CARCINOMA, Dose [Carcinogen]: 7.5 MG IN 0.1 ML ETHANOL:WATER (20:80) 1 WK FOR 8 WK, Promoter: NONE USED
  tumour outcome (control, treated, inhibition, significance): 27/70 (39%), 27/70 (39%), 0%, not significant
Carcinogen: N-BUTYL-N-(4-HYDROXYBUTYL)NITROSAMINE, 3817-11-6, Dose [Inhibitor]: 0, 200 MG/KG DIET FOR 6 MO BEGINNING 1 WK PRIOR TO CARCINOGEN TREATMENT (STUDY DURATION: 6 MO), Species: MOUSE, Strain/Sex: BDF/MALE, Target Tissue: Type of Lesion: URINARY BLADDER: CARCINOMA, Dose [Carcinogen]: 7.5 MG IN 0.1 ML ETHANOL:WATER (20:80) 1/WK FOR 8 WK, Promoter: NONE USED
  tumour outcome (control, treated, inhibition, significance): 30/73 (41%), 27/71 (38%), 7%, not calculated
Carcinogen: N-BUTYL-N-(4-HYDROXYBUTYL)NITROSAMINE, 3817-11-6, Dose [Inhibitor]: 0, 500 MG/KG DIET FOR 76 D THEN 125 MG/KG DIET FOR DURATION OF STUDY (STUDY DURATION: 6 MO), Species: MOUSE, Strain/Sex: BDF/MALE, Target Tissue: Type of Lesion: URINARY BLADDER: CARCINOMA, Dose [Carcinogen]: 7.5 MG IN 0.1 ML ETHANOL:WATER (20:80) 1/WK FOR 8 WK, Promoter: NONE USED
  tumour outcome (control, treated, inhibition, significance): 35/78 (45%), 23/78 (29%), 36%, p<0.05
Carcinogen: N-METHYL-N'-NITRO-N-NITROSOGUANIDINE, 70-25-7, Dose [Inhibitor]: 0, 0.02% IN DIET FOR 12 WK BEGINNING 1 WK PRIOR TO CARCINOGEN TREATMENT (STUDY DURATION: 80 WK), Species: RAT, Strain/Sex: WISTAR/MALE, Target Tissue: Type of Lesion: GLANDULAR STOMACH: ADENOCARCINOMA, Dose [Carcinogen]: 100 PPM IN DRINKING WATER FOR 10 WK, Promoter: NONE USED
  tumour outcome (control, treated, inhibition, significance): 17/30 (57%), 11/30 (37%), 35%, not calculated
Carcinogen: N-METHYL-N'-NITRO-N-NITROSOGUANIDINE, 70-25-7, Dose [Inhibitor]: 0, 0.04% IN DIET FOR 12 WK BEGINNING 1 WK PRIOR TO CARCINOGEN TREATMENT (STUDY DURATION: 80 WK), Species: RAT, Strain/Sex: WISTAR/MALE, Target Tissue: Type of Lesion: GLANDULAR STOMACH: ADENOCARCINOMA, Dose [Carcinogen]: 100 PPM IN DRINKING WATER FOR 10 WK, Promoter: NONE USED
  tumour outcome (control, treated, inhibition, significance): 17/30 (57%), 5/30 (17%), 70%, p<0.01
Carcinogen: N-METHYL-N'-NITRO-N-NITROSOGUANIDINE, 70-25-7, Dose [Inhibitor]: 0, 0.04% IN DIET FOR 12 WK BEGINNING 1 WK PRIOR TO CARCINOGEN TREATMENT (STUDY DURATION: 81 WK), Species: RAT, Strain/Sex: WISTAR/MALE, Target Tissue: Type of Lesion: GLANDULAR STOMACH: ADENOCARCINOMA, Dose [Carcinogen]: 100 PPM IN DRINKING WATER FOR 10 WK, Promoter: NONE USED
  tumour outcome (control, treated, inhibition, significance): 17/30 (57%), 5/30 (17%), 70%, p<0.01
Carcinogen: N-METHYL-N'-NITRO-NITROSOGUANIDINE, 70-25-7, Dose [Inhibitor]: 0, 0.02% IN DIET FOR 12 WK BEGINNING 1 WK PRIOR TO CARCINOGEN TREATMENT (STUDY DURATION: 81 WK), Species: RAT, Strain/Sex: WISTAR/MALE, Target Tissue: Type of Lesion: GLANDULAR STOMACH: ADENOCARCINOMA, Dose [Carcinogen]: 100 PPM IN DRINKING WATER FOR 10 WK, Promoter: NONE USED
  tumour outcome (control, treated, inhibition, significance): 17/30 (57%), 11/30 (37%), 35%, not significant
Carcinogen: N-NITROSOBIS(2-OXOPROPYL)AMINE, 60599-38-4, Dose [Inhibitor]: 0, 300 MG/KG IN DIET FOR 28 WK BEGINNING 2 WK PRIOR TO CARCINOGEN TREATMENT (STUDY DURATION: 28 WK), Species: HAMSTER, Strain/Sex: SYRIAN/FEMALE, Target Tissue: Type of Lesion: PANCREAS: DUCTAL ADENOCARCINOMA, Dose [Carcinogen]: 15 MG/KG BW 1/WK FOR 12 WK, Promoter: NONE USED
  outcome: 17/19 (89%), 14/16 (88%), 1 %, not significant
Carcinogen: N-NITROSOBIS(2-OXOPROPYL)AMINE, 60599-38-4, Dose [Inhibitor]: 0, 600 MG/KG IN DIET FOR 28 WK BEGINNING 2 WK PRIOR TO CARCINOGEN TREATMENT (STUDY DURATION: 28 WK), Species: HAMSTER, Strain/Sex: SYRIAN/FEMALE, Target Tissue: Type of Lesion: PANCREAS: DUCTAL ADENOCARCINOMA, Dose [Carcinogen]: 15 MG/KG BW 1/WK FOR 12 WK, Promoter: NONE USED
  tumour outcome (control, treated, inhibition, significance): 17/19 (89%), 9/15 (60%), 33%, p<0.05
Carcinogen: NITROSOBIS(2-OXOPROPYL)AMINE [60599-38-4], Dose [Inhibitor]: 200 PPM IN DIET FOR 4 WK BEGINNING 1 WK PRIOR TO FIRST CARCINOGEN DOSE (STUDY DURATION: 52 WK), Species: HAMSTER, Strain/Sex: SYRIAN/FEMALE, Target Tissue: Type of Lesion: GALL BLADDER: ADENOMA, Dose [Carcinogen]: 10 MG/KG BW 1X/WK FOR 3 WK (STUDY DURATION: 52 WK)
  tumour outcome (control, treated, inhibition, significance): 13.3%, 21.7%, -63%, not significant
Carcinogen: NITROSOBIS(2-OXOPROPYL)AMINE [60599-38-4], Dose [Inhibitor]: 200 PPM IN DIET FOR 4 WK BEGINNING 1 WK PRIOR TO FIRST CARCINOGEN DOSE (STUDY DURATION: 52 WK), Species: HAMSTER, Strain/Sex: SYRIAN/FEMALE, Target Tissue: Type of Lesion: KIDNEY: RENAL CELL ADENOMA, Dose [Carcinogen]: 10 MG/KG BW 1X/WK FOR 3 WK (STUDY DURATION: 52 WK)
  tumour outcome (control, treated, inhibition, significance): 3.3%, 3.4%, -3%, not significant
Carcinogen: NITROSOBIS(2-OXOPROPYL)AMINE [60599-38-4], Dose [Inhibitor]: 200 PPM IN DIET FOR 4 WK BEGINNING 1 WK PRIOR TO FIRST CARCINOGEN DOSE (STUDY DURATION: 52 WK), Species: HAMSTER, Strain/Sex: SYRIAN/FEMALE, Target Tissue: Type of Lesion: KIDNEY: RENAL CELL CARCINOMA, Dose [Carcinogen]: 10 MG/KG BW 1X/WK FOR 3 WK (STUDY DURATION: 52 WK)
  tumour outcome (control, treated, inhibition, significance): 6.7%, 10.3%, -54%, not significant
Carcinogen: NITROSOBIS(2-OXOPROPYL)AMINE [60599-38-4], Dose [Inhibitor]: 200 PPM IN DIET FOR 4 WK BEGINNING 1 WK PRIOR TO FIRST CARCINOGEN DOSE (STUDY DURATION: 52 WK), Species: HAMSTER, Strain/Sex: SYRIAN/FEMALE, Target Tissue: Type of Lesion: LIVER: CHOLANGIOCELLULAR ADENOMA, Dose [Carcinogen]: 10 MG/KG BW 1X/WK FOR 3 WK (STUDY DURATION: 52 WK)
  tumour outcome (control, treated, inhibition, significance): 6.7%, 0.0%, 100%, not significant
Carcinogen: NITROSOBIS(2-OXOPROPYL)AMINE [60599-38-4], Dose [Inhibitor]: 200 PPM IN DIET FOR 4 WK BEGINNING 1 WK PRIOR TO FIRST CARCINOGEN DOSE (STUDY DURATION: 52 WK), Species: HAMSTER, Strain/Sex: SYRIAN/FEMALE, Target Tissue: Type of Lesion: LIVER: CHOLANGIOCELLULAR CARCINOMA, Dose [Carcinogen]: 10 MG/KG BW 1X/WK FOR 3 WK (STUDY DURATION: 52 WK)
  outcome: 0.0%, 10.3%, -100%, not significant
